US20250134855A1, “CO[…] AND METHODS OF USING SAME” (LYKOS THERAPEUTICS, INC., priority 2022, published 2025)

Experiments:
[1] = target: T1, OATP1B3 (Homo sapiens, UniProt Q9NPD5); test: Transporter substrate assessment, OATP1B3
[2] = target: OAT3 (Homo sapiens, UniProt Q8TCC7); test: Transporter inhibition, OAT3
[3] = tested on: CHO-WBL cells; test: Chromosomal aberrations in CHO-WBL cells; format: cell-based; settings: with and without metabolic activation
[4] = target: MATE1 (Homo sapiens, UniProt Q96FL8); test: Transporter inhibition, MATE1; settings: at supratherapeutic concentrations
[5] = tested on: CYP2B6, CYP2D6, CYP2C19, CYP1A2, CYP3A4, CYP2C9, CYP2C8; test: CYP enzymes metabolizing MDMA; settings: less contribution by CYP2C19, CYP1A2, CYP3A4, CYP2C9, and CYP2C8
[6] = target: human ether-à-go-go-related gene (hERG) potassium current (Homo sapiens, UniProt Q12809); test: hERG potassium current inhibition
[7] = tested on: rats; test: Daily 28-day repeated dose toxicology study, rats; format: in vivo, rat; settings: 0, 10, 50, or 100 mg/kg/day, daily 28 days
Experimental: Based on negative in vivo and in vitro genotoxicity studies, the carcinogenic risk of MDMA·HCl is low. No tumors were reported after daily 28-day repeated dose toxicology studies of MDMA in rats (0, 10, 50, or 100 mg/kg/day) or dogs (0, 3, 9, or 15 mg/kg/day).

[8] = tested on: male and female rats; test: Fertility study, male and female rats; format: in vivo, rat
Experimental: MDMA (0, 2.5, 5, and 10 mg/kg/day) was orally administered to male and female rats before mating. Males were dosed once daily for 28 days prior to pairing and dosing continued until euthanasia. Females were dosed once daily for 21 days prior to pairing and dosing continued though gestational day seven.

[9] = target: MDR1 (Homo sapiens, UniProt P08183); test: Transporter inhibition, MDR1
[10] = target: T1, OATP1B3; test: Transporter inhibition, OATP1B3
[11] = tested on: MDMA-AT trial participants (MAPP1 and MAPP2); test: MPLONG long-term follow-up: CAPS-5 durability, responder analysis, relapse; format: in vivo, human
Description: MPLONG is an observational long-term follow-up study for MDMA-AT trial participants intended to provide data on treatment durability as measured by the CAPS-5 and Sheehan Disability Scale (SDS). Participants who elect to enroll in MPLONG completed a LTFU visit at least 6 months following their completion of the parent study. MPLONG opened for enrollment 8 months following the last subject visit of the MAPP1 trial and MAPP1 participants entered MPLONG unblinded to their treatment assignment. Enrollees from the second Phase 3 trial MAPP2, however, complete LTFU with blinding maintained.
A sensitivity analysis was conducted to determine whether there was a detectable difference in the observed trend dependent on the time elapsed since the parent study (Table 47 (Table 47 (Table 47). There was no observable impact of the time window, as durability was maintained in both those with LFTU within a year and those with LTFU greater than 12 months after study termination.

[12] = tested on: human Caco-2 cells; test: Caco-2 permeability
[13] = target: BCRP (Homo sapiens, UniProt Q9UNQ0); test: Transporter inhibition, BCRP; settings: not told
[14] = LTFU visit, MAPP1 and MAPP2, loss of diagnosis at study termination and ≥10 point increase and meeting PTSD diagnostic criteria at LTFU
[15] = LTFU visit, MAPP1 and MAPP2, remission at study termination and >11 CAPS-5 TSS at LTFU
[16] = LTFU visit, MAPP1 and MAPP2, ≤11 CAPS-5 TSS from BL not meeting PTSD diagnostic criteria at LTFU
[17] = LTFU visit, MAPP1 and MAPP2, ≥10 point reduction in CAPS-5 TSS from BL and ≥10 point increase from study termination at LTFU
[18] = LTFU visit, MAPP1 and MAPP2, ≥10 pt reduction in CAPS-5 TSS from BL and not meeting PTSD diagnostic criteria at LTFU
[19] = LTFU visit, MAPP1 and MAPP2, ≥10 pt reduction in CAPS-5 TSS from BL at study termination and LTFU
[20] = MAPP1 and MAPP2, LTFU 6-12 Months
[21] = MAPP1 and MAPP2, LTFU >12 Months
[22] = MAPP1 and MAPP2, Study Termination (last available assessment in parent study)
[23] = MAPP2 participants only, Long Term Follow Up Study Visit 1
[24] = MPLONG, MAPP1 and MAPP2 participants, Visit 1
[25] = MPLONG, MAPP1 and MAPP2 participants, parent study Baseline
[26] = MPLONG, MAPP1 and MAPP2 participants, parent study Visit 8
[27] = MPLONG, MAPP1 and MAPP2 participants, parent study Visit 13
[28] = MPLONG, MAPP1 and MAPP2 participants, parent study Visit 19
[29] = MPLONG, MAPP2 participants only, parent study Baseline
[30] = MPLONG, MAPP2 participants only, parent study Visit 8
[31] = MPLONG, MAPP2 participants only, parent study Visit 13
[32] = MPLONG, MAPP2 participants only, parent study Visit 19

Chain of human ether-à-go-go-related gene (hERG) potassium current (Q12809 whole entry): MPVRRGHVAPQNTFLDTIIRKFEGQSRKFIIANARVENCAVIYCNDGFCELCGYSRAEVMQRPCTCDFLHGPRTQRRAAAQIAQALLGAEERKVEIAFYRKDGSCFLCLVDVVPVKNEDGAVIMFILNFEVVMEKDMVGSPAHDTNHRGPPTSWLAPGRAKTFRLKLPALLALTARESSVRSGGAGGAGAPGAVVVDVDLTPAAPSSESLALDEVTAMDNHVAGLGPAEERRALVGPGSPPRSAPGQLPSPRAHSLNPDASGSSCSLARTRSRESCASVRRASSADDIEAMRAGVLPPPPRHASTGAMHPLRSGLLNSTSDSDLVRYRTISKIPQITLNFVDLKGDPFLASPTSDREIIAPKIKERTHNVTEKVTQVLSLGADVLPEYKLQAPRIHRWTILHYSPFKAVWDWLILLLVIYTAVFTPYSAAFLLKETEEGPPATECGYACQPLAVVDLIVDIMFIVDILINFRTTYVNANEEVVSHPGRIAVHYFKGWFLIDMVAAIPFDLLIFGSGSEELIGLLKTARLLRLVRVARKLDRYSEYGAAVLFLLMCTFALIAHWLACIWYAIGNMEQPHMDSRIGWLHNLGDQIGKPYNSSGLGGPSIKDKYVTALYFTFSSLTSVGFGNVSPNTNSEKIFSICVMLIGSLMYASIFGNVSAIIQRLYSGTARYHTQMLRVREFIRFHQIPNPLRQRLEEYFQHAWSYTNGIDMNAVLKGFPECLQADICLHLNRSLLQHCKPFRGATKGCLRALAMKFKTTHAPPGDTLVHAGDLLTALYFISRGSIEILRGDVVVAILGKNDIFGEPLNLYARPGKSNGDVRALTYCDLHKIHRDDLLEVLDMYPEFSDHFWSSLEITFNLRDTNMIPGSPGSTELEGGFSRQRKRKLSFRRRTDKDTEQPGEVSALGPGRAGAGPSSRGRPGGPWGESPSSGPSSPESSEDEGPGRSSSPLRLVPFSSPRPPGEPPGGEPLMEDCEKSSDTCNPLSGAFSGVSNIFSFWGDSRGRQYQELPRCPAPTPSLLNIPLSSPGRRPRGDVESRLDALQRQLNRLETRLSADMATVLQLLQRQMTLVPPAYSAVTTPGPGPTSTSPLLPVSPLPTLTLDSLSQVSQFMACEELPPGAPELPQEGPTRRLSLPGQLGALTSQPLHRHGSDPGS
T1 sequence (Q9NPD5 whole entry): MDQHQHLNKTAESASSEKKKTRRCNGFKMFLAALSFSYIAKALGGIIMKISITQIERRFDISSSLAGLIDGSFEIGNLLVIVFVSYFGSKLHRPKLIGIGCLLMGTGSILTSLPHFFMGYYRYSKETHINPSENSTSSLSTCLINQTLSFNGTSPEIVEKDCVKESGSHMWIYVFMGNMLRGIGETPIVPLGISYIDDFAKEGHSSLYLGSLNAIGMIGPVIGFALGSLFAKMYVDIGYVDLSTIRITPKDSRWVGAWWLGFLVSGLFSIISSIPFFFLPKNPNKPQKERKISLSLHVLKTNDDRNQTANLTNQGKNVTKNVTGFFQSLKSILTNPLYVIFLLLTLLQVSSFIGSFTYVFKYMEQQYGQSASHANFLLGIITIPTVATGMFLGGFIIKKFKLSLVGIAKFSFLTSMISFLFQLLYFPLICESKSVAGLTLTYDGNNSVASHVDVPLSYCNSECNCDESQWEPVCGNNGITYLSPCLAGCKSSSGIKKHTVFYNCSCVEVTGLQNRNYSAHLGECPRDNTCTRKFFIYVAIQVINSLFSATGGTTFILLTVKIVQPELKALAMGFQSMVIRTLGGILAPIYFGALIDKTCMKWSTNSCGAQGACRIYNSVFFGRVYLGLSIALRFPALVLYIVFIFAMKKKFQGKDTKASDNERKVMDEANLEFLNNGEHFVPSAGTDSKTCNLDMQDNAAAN
Chain of MDR1 (P08183 whole entry): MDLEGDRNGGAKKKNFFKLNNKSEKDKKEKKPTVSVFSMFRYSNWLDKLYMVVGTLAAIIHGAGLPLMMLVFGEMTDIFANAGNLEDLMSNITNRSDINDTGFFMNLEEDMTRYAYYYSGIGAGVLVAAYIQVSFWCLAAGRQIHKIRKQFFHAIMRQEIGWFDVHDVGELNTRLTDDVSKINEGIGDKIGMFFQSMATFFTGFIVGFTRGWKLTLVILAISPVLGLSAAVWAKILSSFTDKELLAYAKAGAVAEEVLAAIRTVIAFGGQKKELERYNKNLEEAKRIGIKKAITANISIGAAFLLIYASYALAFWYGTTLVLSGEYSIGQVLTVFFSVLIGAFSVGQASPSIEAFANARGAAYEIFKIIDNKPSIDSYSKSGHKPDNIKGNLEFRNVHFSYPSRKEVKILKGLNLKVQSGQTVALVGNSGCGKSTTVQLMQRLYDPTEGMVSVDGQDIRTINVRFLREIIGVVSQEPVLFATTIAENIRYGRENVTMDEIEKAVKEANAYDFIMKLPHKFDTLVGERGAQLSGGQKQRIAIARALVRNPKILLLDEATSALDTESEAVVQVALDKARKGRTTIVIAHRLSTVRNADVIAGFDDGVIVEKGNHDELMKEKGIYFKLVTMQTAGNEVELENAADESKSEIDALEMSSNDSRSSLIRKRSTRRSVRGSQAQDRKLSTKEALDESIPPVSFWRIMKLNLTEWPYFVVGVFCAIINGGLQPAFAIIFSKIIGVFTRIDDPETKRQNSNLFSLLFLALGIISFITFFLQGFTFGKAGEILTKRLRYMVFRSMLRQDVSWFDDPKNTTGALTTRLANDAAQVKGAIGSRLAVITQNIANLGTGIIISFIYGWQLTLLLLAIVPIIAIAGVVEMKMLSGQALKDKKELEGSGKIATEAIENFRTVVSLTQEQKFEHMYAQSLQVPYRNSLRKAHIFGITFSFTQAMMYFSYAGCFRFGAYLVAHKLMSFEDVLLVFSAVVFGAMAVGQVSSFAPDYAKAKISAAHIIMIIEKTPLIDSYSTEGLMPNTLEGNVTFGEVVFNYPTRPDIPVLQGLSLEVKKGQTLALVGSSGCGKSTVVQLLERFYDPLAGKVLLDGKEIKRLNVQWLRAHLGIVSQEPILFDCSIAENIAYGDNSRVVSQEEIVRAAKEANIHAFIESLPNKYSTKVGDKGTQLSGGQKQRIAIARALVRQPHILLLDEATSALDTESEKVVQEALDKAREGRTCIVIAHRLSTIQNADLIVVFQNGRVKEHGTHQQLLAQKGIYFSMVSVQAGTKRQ
Chain of BCRP (Q9UNQ0 whole entry): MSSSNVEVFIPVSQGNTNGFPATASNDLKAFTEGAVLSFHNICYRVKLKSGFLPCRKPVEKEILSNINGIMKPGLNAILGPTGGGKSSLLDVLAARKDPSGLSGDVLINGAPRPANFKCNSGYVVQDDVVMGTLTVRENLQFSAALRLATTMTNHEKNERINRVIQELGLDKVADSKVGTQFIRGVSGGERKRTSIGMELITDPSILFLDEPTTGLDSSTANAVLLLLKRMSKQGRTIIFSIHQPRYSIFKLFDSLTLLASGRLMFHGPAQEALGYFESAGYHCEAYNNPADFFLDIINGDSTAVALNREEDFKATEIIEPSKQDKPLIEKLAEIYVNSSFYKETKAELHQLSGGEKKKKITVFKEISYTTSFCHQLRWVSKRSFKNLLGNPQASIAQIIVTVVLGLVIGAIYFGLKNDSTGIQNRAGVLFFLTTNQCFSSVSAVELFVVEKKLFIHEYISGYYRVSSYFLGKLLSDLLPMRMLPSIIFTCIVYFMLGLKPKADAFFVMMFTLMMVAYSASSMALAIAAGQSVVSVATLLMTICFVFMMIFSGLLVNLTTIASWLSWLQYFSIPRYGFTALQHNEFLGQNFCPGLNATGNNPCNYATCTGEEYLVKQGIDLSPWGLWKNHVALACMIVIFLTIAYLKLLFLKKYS
Chain of MATE1 (Q96FL8 whole entry): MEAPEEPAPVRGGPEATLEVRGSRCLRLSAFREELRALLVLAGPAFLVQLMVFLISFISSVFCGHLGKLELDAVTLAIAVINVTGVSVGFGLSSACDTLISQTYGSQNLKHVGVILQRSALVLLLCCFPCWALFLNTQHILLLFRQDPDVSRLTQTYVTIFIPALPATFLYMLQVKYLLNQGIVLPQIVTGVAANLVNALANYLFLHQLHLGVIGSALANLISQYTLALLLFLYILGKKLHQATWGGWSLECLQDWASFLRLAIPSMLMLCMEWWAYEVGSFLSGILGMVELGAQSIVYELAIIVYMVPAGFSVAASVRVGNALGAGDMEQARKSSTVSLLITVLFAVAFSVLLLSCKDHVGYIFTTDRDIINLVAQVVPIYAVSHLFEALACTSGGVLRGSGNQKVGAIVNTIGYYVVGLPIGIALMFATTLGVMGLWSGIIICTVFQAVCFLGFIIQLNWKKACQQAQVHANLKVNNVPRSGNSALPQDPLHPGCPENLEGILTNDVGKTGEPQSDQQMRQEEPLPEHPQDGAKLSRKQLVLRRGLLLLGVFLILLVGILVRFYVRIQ
Chain of OAT3 (Q8TCC7 whole entry): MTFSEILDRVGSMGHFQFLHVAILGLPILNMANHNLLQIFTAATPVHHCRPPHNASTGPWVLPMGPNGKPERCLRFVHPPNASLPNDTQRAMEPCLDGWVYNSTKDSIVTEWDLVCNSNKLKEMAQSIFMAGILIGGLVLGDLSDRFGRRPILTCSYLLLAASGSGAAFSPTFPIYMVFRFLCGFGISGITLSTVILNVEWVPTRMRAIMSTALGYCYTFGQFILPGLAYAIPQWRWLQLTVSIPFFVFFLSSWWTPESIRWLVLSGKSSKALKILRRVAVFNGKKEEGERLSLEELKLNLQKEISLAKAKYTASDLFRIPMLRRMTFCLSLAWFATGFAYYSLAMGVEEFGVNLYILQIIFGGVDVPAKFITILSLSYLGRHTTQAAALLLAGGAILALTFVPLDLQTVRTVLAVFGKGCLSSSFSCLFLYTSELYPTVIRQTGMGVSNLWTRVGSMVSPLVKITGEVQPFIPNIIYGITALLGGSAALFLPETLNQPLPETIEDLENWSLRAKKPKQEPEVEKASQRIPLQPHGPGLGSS

CNC(C)Cc1ccc2c(c1)OCO2 (stereo not shown) [MDMA, 3,4-methylenedioxymethamphetamine]
substrate of OATP1B3 [1]: not a substrate | inhibition of OAT3 [2]: not an inhibitor | chromosomal aberrations [3]: no signs of chromosomal aberrations | inhibition of MATE1 [4]: inhibits | metabolizing CYP enzymes [5]: metabolized primarily by CYP2B6 and CYP2D6 | IC50 [6]: 206 µM | Hill coefficient, hERG ([6]; human): 1.1 | margin of hERG IC50 over clinical plasma concentration ([6]; supratherapeutic single dose of 180 mg MDMA HCl): 111 x | tumors [7]: No tumors | mean prostate gland weights ([8]; all MDMA-treated males relative to controls): decreased | fertility and reproductive performance ([8]; oral, up to the highest dose evaluated (10 mg/kg/day)): No effect on fertility and reproductive performance | inhibition of MDR1 [9]: not an inhibitor | inhibition of OATP1B3 [10]: not an inhibitor | Relapse after Loss of Diagnosis, Does not meet criteria, % [11, 14]: (93.8) % | Relapse after Loss of Diagnosis, Meets criteria, % [11, 14]: (6.2) % | Relapse of Remission, Does not meet criteria, % [11, 15]: (95.4) % | Relapse of Remission, Meets criteria, % [11, 15]: (4.6) % | Durable Remission, Does not meet criteria, % [11, 16]: (40.0) % | Durable Remission, Meets criteria, % [11, 16]: (60.0) % | Relapse after Treatment Response, Does not meet criteria, % [11, 17]: (93.8) % | Relapse after Treatment Response, Meets criteria, % [11, 17]: (6.2) % | Durable Loss of Diagnosis, Does not meet criteria, % [11, 18]: (16.9) % | Durable Loss of Diagnosis, Meets criteria, % [11, 18]: (83.1) % | Durable Treatment Response, Does not meet criteria, % [11, 19]: (10.8) % | Durable Treatment Response, Meets criteria, % [11, 19]: (89.2) % | loss of diagnosis at LTFU ([11]; MAPP1 and MAPP2): 83.1% | met the definition of treatment response at LTFU ([11]; MAPP1 and MAPP2): 89.2% | relapse following remission ([11]; MAPP1 and MAPP2): 4.6% | relapse following treatment response or loss of diagnosis ([11]; MAPP1 and MAPP2): 12.3% | remission at LTFU ([11]; MAPP1 and MAPP2): 60% | CAPS-5 Total Severity Score, Actual, Mean [11, 20]: 11.9 | CAPS-5 Total Severity Score, Actual, Median [11, 20]: 9.0 | CAPS-5 Total Severity Score, Change from Study Termination, Mean [11, 20]: −3.7 | CAPS-5 Total Severity Score, Change from Study Termination, Median [11, 20]: −2.5 | CAPS-5 Total Severity Score, Actual, Mean [11, 21]: 11.2 | CAPS-5 Total Severity Score, Actual, Median [11, 21]: 6.0 | CAPS-5 Total Severity Score, Change from Study Termination, Mean [11, 21]: −5.9 | CAPS-5 Total Severity Score, Change from Study Termination, Median [11, 21]: −5.0 | CAPS-5 Total Severity Score, Actual, Mean [11, 22]: 16.4 | CAPS-5 Total Severity Score, Actual, Median [11, 22]: 15.0 | mean change from baseline (CFB) in CAPS-5 scores at LTFU ([11]; MAPP2 parent study): −28.7 | CAPS-5 Total Severity Score, Actual, Mean [11, 23]: 10.7 | CAPS-5 Total Severity Score, Actual, Median [11, 23]: 8.5 | CAPS-5 Total Severity Score, CFB, Mean [11, 23]: −28.7 | CAPS-5 Total Severity Score, CFB, Median [11, 23]: −30.5 | CAPS-5 Total Severity Score, Actual, Mean [11, 24]: 11.5 | CAPS-5 Total Severity Score, Actual, Median [11, 24]: 8.0 | CAPS-5 Total Severity Score, CFB, Mean [11, 24]: −29.2 | CAPS-5 Total Severity Score, CFB, Median [11, 24]: −31.0 | CAPS-5 Total Severity Score, Actual, Mean [11, 25]: 40.8 | CAPS-5 Total Severity Score, Actual, Median [11, 25]: 40.0 | CAPS-5 Total Severity Score, Actual, Mean [11, 26]: 29.5 | CAPS-5 Total Severity Score, Actual, Median [11, 26]: 31.0 | CAPS-5 Total Severity Score, CFB, Mean [11, 26]: −11.3 | CAPS-5 Total Severity Score, CFB, Median [11, 26]: −12.0 | CAPS-5 Total Severity Score, Actual, Mean [11, 27]: 22.0 | CAPS-5 Total Severity Score, Actual, Median [11, 27]: 23.0 | CAPS-5 Total Severity Score, CFB, Mean [11, 27]: −18.8 | CAPS-5 Total Severity Score, CFB, Median [11, 27]: −19.0 | CAPS-5 Total Severity Score, Actual, Mean [11, 28]: 15.9 | CAPS-5 Total Severity Score, Actual, Median [11, 28]: 14.0 | CAPS-5 Total Severity Score, CFB, Mean [11, 28]: −24.8 | CAPS-5 Total Severity Score, CFB, Median [11, 28]: −27.0 | CAPS-5 Total Severity Score, Actual, Mean [11, 29]: 39.4 | CAPS-5 Total Severity Score, Actual, Median [11, 29]: 38.5 | CAPS-5 Total Severity Score, Actual, Mean [11, 30]: 28.1 | CAPS-5 Total Severity Score, Actual, Median [11, 30]: 30.5 | CAPS-5 Total Severity Score, CFB, Mean [11, 30]: −11.3 | CAPS-5 Total Severity Score, CFB, Median [11, 30]: −12.0 | CAPS-5 Total Severity Score, Actual, Mean [11, 31]: 19.7 | CAPS-5 Total Severity Score, Actual, Median [11, 31]: 18.0 | CAPS-5 Total Severity Score, CFB, Mean [11, 31]: −19.8 | CAPS-5 Total Severity Score, CFB, Median [11, 31]: −22.0 | CAPS-5 Total Severity Score, Actual, Mean [11, 32]: 14.8 | CAPS-5 Total Severity Score, Actual, Median [11, 32]: 12.0 | CAPS-5 Total Severity Score, CFB, Mean [11, 32]: −24.5 | CAPS-5 Total Severity Score, CFB, Median [11, 32]: −27.0 | permeability in human Caco-2 cells [12]: highly permeable | inhibition of BCRP [13]: not an inhibitor
